The values below come from ChEMBL document CHEMBL5390276, “Discovery of Unusual Sesterterpenoids from Colquhounia coccinea var. mollis and Their Metabolic Implications” (2023).

Holding throughout (assay type): functional
Assay [1] relates to RAW264.7. The assay is described as follows: Immunosuppressive activity in LPS-treated mouse RAW264.7 cells assessed as inhibition of TNF-alpha level at 1 uM incubated for 24 hrs by ELISA analysis relative to control.
Assay [2] has as its system RAW264.7. Briefly: Immunosuppressive activity in LPS-treated mouse RAW264.7 cells assessed as inhibition of MCP-1 level at 1 uM incubated for 24 hrs by ELISA analysis relative to control. (In general: ELISA stands for enzyme-linked immunosorbent assay.)
The test system of assay [3] is RAW264.7. The assay is described as follows: Immunosuppressive activity in LPS-treated mouse RAW264.7 cells assessed as inhibition of IL-6 level at 40 uM incubated for 24 hrs by ELISA analysis relative to control.
Assay [4] concerns RAW264.7. Briefly: Immunosuppressive activity in LPS-treated mouse RAW264.7 cells assessed as inhibition of TNF-alpha level at 40 uM incubated for 24 hrs by ELISA analysis relative to control.
The test system of assay [5] is Jurkat. The assay is described as follows: Immunosuppressive activity in PMA and PHA activated human Jurkat cells assessed as inhibition of IL-2 level at 40 uM incubated for 48 hrs by ELISA analysis relative to control.
The test system of assay [6] is RAW264.7. The assay is described as follows: Immunosuppressive activity in LPS-treated mouse RAW264.7 cells assessed as inhibition of MCP-1 level at 40 uM incubated for 24 hrs by ELISA analysis relative to control.
The nature of assay [7]: Immunosuppressive activity in anti-CD3/CD28 stimulated C57BL/6 mouse T cell line assessed as inhibition of IFN-gamma level at 20 uM incubated for 48 hrs by ELISA analysis relative to control. The conditions noted are these: C57BL/6, T-cell.
Assay [8] concerns RAW264.7. The assay is described as follows: Immunosuppressive activity in LPS-treated mouse RAW264.7 cells assessed as inhibition of IL-6 level at 20 uM incubated for 24 hrs by ELISA analysis relative to control.
For assay [9], the system named is Jurkat. Briefly: Immunosuppressive activity in PMA and PHA activated human Jurkat cells assessed as inhibition of IL-2 level at 0.1 uM incubated for 48 hrs by ELISA analysis relative to control.
Assay [10] can be described thus: Immunosuppressive activity in anti-CD3/CD28 stimulated C57BL/6 mouse T cell line assessed as inhibition of IFN-gamma level at 0.1 uM incubated for 48 hrs by ELISA analysis relative to control. The conditions noted are these: C57BL/6, T-cell.
Assay [11] has as its system Jurkat. Briefly: Immunosuppressive activity in PMA and PHA activated human Jurkat cells assessed as inhibition of IL-2 level at 20 uM incubated for 48 hrs by ELISA analysis relative to control.

In general, inhibition refers to the relative decrease from the control value, in per cent.

On to `C/C=C/C[C@@H](C)[C@@H](O)[C@H]1C(=O)N[C@@H](CC)C(=O)N(C)CC(=O)N(C)[C@@H](CC(C)C)C(=O)N[C@@H](C(C)C)C(=O)N(C)[C@@H](CC(C)C)C(=O)N[C@@H](C)C(=O)N[C@H](C)C(=O)N(C)[C@@H](CC(C)C)C(=O)N(C)[C@@H](CC(C)C)C(=O)N(C)[C@@H](C(C)C)C(=O)N1C` [CYCLOSPORINE], for which the figures for the inhibition at 1 µM in assay [1] and in assay [2] were 70.8% and 66%, respectively.

Turning to `CC(=O)O[C@H]1C[C@H](C)[C@H]2C(=O)C3=C(/C(=C/C(C)C)O[C@]3(C)CCc3occc3C)[C@H](C)[C@H]21`, the inhibition at 40 µM in assay [3] is less than 10%; in [4], 24.3%; in assay [5] it was 21.1%; in assay [6], 31.9%.

As to `CC(=O)O[C@H]1C[C@H](C)[C@H]2C(=O)C3=C([C@H](C)[C@H]21)[C@@]1(CC[C@H](C)O1)O[C@]3(C)CC[C@@H]1OC(=O)C=C1C`, the inhibition at 40 µM in assay [3] is 10.4%; in assay [4] it was 52.5%; in assay [5], less than 10%; in assay [6], 32.2%.

Consider `Cc1ccoc1CC[C@]1(C)O[C@@]2(CCC(C)Cl)O[C@H]3C[C@H](C)[C@H]4C(=O)[C@@H]1[C@]2(O)[C@H](C)[C@H]43` (some centres not stated), for which the inhibition at 20 µM in [7] is 61.2%; in assay [8] it was 45.6%.

With `C[C@@H]1C[C@H]2[C@@H]3CCC4=CC(=O)C=C[C@]4(C)[C@@]3(F)[C@@H](O)C[C@]2(C)[C@@]1(O)C(=O)CO` [DEXAMETHASONE], the values for the inhibition at 0.1 µM in assay [9] and in assay [10] were 98.9% and 98.3%, respectively.

In the case of `Cc1ccoc1CC[C@]1(C)O[C@@]2(CC(C)CCl)O[C@H]3C[C@H](C)[C@H]4C(=O)[C@@H]1[C@]2(O)[C@H](C)[C@H]43` (some centres not stated), the results for the inhibition at 20 µM in assay [11], in assay [7] and in assay [8] were 33.1%, 67.4% and 38.6%, respectively.
